Consider three molecules from US7176244B1, “Use of 2-nitropropanol, 2-nitroethane, and 2-nitroethanol for control of microbial pathogens” (The United States of America as represented by the …, priority 2002, dated 2007).

Several values for one entry are separate records, joined by “and”; a condition that tells them apart may be missing. Equal entries are not always repeated. Where two headings read alike, the source gives them in different places.

One test deals with Campylobacter jejuni. Nature of the test: Bactericidal effect in Bolton Broth at different pH. Type of test: cell-based. As to conditions: sodium salt used; 0, 10, 20 mM in Bolton Broth; pH 5.6, 7.2, 8.2. Here is the method:
The bactericidal effect of 2-nitroethane against Campylobacter jejuni was examined in vitro following substantially the same assay as described in the first experiment of Example 1 except Bolton Broth was utilized rather than TSB. In this experiment nitroethane was added to the Bolton Broth medium in amounts to give 0, 10, and 20 mM final concentrations, and trials were conducted in the media at different pH (5.6, 7.2, and 8.2).
Because 2-nitroethane is somewhat volatile, the sodium salt of the compound was prepared and used in this experiment. The salt was prepared using the process described by Majak et al. (1986, J. Anim. Sci., 62:1072–1080, the contents of which are incorporated by reference herein).

In a further test the test system is E. coli O157:H7. The test is described as follows: Specific growth rate in tryptic soy broth (A600). The test is classed as cell-based, Escherichia coli O157:H7. As to conditions: 2.5 mM and higher concentrations in TSB, 37° C. The method, then:
(§1) The bactericidal effect of 2-nitropropanol and nitroethanol were examined in vitro on several pathogenic bacteria including Salmonella Typhimurium, Escherichia coli O157:H7, Campylobacter jejuni, and Enterococcus faecalis. For an initial in vitro study 2-nitropropanol or nitroethanol were added to tryptic soy broth (TSB) medium in amounts to give 0, 2.5, 5, and 10 mM final concentration. Cultures were inoculated in TSB and incubated at 37° C. Specific growth rates (h^−1) were calculated by measuring optical density (A600) with spectrophotometer.

The test system of test [1] is S. Typhimurium. The test is described as follows: Specific growth rate in tryptic soy broth (A600). The test is classed as cell-based, Salmonella Typhimurium. Here is the method:
as §1

In test [2] the test system is Salmonella Typhimurium. Type of test: in vivo, broiler chicks. As to conditions: oral gavage, 24 h, Experiment 1. The method, then: The bactericidal effect of 2-nitropropanol on Salmonella typhimurium was determined in vivo. The in vivo study was conducted using 7-day-old chick experimentally infected with S. Typhimurium. In experiment 1, chicks were orally challenged with 10^6 cfu of NN-resistant strain of S. Typhimurium. Chicks were divided into four groups; control, 1 (13 mg 2-nitropropanol/bird), 5 (65 mg 2-nitropropanol/bird) and 10×(130 mg 2-nitropropanol/bird). Treatments were administered via oral gavage. After 24 h, cecal contents were aseptically removed and subjected to bacterial analysis.

Test [3] has as its system S. Typhimurium. Type of test: cell-based, Salmonella Typhimurium. As to conditions: 10 mM. The method, then: Another experiment was conducted to evaluate the bactericidal effect of 2-nitropropanol against S. Typhimurium in buffered rumen and fecal fluid containing viable populations of endogenous anaerobes. Briefly, ruminal contents and feces were retrieved and strained. Both collected fluids were transferred to laboratory and mixed with anoxic phosphate buffer (pH 6.8). Antibiotic-marked (25 μg novobiocin/ml and 20 μg/ml of nalidixic acid resistant) (NN)S. Typhimurium cultures were inoculated into these mixtures supplemented with 2-nitropropanol at various concentrations (0, 2.5, and 10 mM of final). Those inoculated tubes were incubated at 37° C. and populations were monitored at different sampling time (0, 3, 6, and 24 h) by direct plating onto brilliant green agar (BGA) containing NN.

Another test concerns Listeria monocytogenes. Nature of the test: Bactericidal effect in Tryptic Soy Broth at different pH. Type of test: cell-based. As to conditions: pH 5.6, 7.2, 8.2, 37° C. The method, then: The bactericidal effect of 2-nitropropanol against Listeria monocytogenes was examined in vitro following the same assay as described in the first and second experiments of Example 1. Trials were conducted in the media at different pH (5.6, 7.2, and 8.2).

In test [4] the test system is S. Typhimurium. Nature of the test: pH effect: populations (CFU/ml) in TSB adjusted to different pH, enumerated on TSA. The test is classed as cell-based, Salmonella Typhimurium. As to conditions: 37° C. Here is the method:
In order to observe the pH effect on this 2-nitropropanol, S. Typhimurium was inoculated into TSB medium adjusted to different pH (5.6, 7.2, and 8.0) with 2-nitropropanol (0, 2.5, and 10 mM final concentration) and incubated at 37° C. Populations of S. Typhimurium were determined (CFU/ml) by enumerating on tryptic soy agar (TSA) at 3, 6, and 24 h. […] However, S. Typhimurium was totally inactivated (more than 5 log reductions) at 10 mM 2-nitropropanol regardless of pH (FIG. 2).

A further test relates to E. faecalis. Nature of the test: Specific growth rate in tryptic soy broth (A600). The test is classed as cell-based, Enterococcus faecalis. As to conditions: 10 mM in TSB, 37° C. The method, then: as §1
The subject of test [5] is Salmonella Typhimurium. The test is described as follows: Cecal populations in experimentally challenged broiler chicks, experiment 2. As to conditions: oral gavage. Type of test: in vivo. The method, then: Significant (P<0.05) log reductions occurred in group administered 1×(13 mg/bird) dose for both 24 and 48 h duration compared to untreated control.
Another test concerns C. jejuni. The test is described as follows: Bactericidal effect in Campylobacter enrichment broth, direct plating and enrichment. Type of test: cell-based, Campylobacter jejuni. As to conditions: 48 h, pH 5.6 and 7.0, 42° C. The method, then:
The bactericidal effect against C. jejuni was also determined in vitro. Cultures were inoculated into Campylobacter enrichment broth containing 2-nitropropanol at 0, 5, 10, and 20 mM of final and incubated at 42° C.

Turning to `CC[N+](=O)[O-]` [2-nitroethane], in the test with Campylobacter jejuni, the “pH dependence of bactericidal effect against Campylobacter jejuni” value is “increased at alkaline pH”.
Regarding `O=[N+]([O-])CCO` [2-nitroethanol], in the test with E. coli O157:H7, the “growth of E. coli O157:H7 (specific growth rate)” value is on record as “largely prohibited”. Further, the “growth of S. Typhimurium (specific growth rate)” value in the test with S. Typhimurium [1] is “largely prohibited”.
As to `CC(CO)[N+](=O)[O-]` (stereo not shown) [2-nitropropanol], the “Mean log CFU/g of cecal content (standard deviation)” value was 3.65±2.01 log CFU/g and 3.65 (2.01) B log CFU/g with Salmonella Typhimurium [2] (1× = 13 mg per bird); 3.39±2.42 log CFU/g and 3.39 (2.42) B log CFU/g with Salmonella Typhimurium [2] (5× = 65 mg per bird); 3.47 ± 1.55 log CFU/g and 3.46 (1.55) B log CFU/g in the test on Salmonella Typhimurium [2] (10× = 130 mg per bird). For the same molecule, the “growth of E. coli O157:H7 (specific growth rate)” value with E. coli O157:H7 was “largely prohibited”. In addition, the “reductions of Salmonella populations compared to controls” value in the test with S. Typhimurium [3] (fecal fluid in anoxic phosphate buffer pH 6.8, 37° C.) is listed as 2–3 log; in the test on S. Typhimurium [3] (ruminal fluid in anoxic phosphate buffer pH 6.8, 37° C.), 2–3 log. Besides, the “pH dependence of bactericidal effect against Listeria monocytogenes” value in the test with Listeria monocytogenes is reported as “enhanced in an acidic or alkaline environment, but is somewhat reduced at neutral pH”. Besides, in the test on S. Typhimurium [4] (2.5 mM, pH 5.6, after 24 h), the “reduction of S. Typhimurium cells” value was “approximately 3 log”. Further, the “reduction of S. Typhimurium cells (totally inactivated)” value in the test on S. Typhimurium [4] (10 mM, regardless of pH (5.6, 7.2, 8.0)) is “more than 5 log”. For the same molecule, the “growth of E. faecalis (specific growth rate)” value with E. faecalis is “markedly inhibited”. For the same molecule, the “Salmonella Typhimurium, Mean log CFU/g of cecal content (standard deviation)” value in the test with Salmonella Typhimurium [5] (0.5× = 6.5 mg per bird, 24 h) is 4.19 (2.53) A log CFU/g; in the test with Salmonella Typhimurium [5] (0.5× = 6.5 mg per bird, 48 h) it was 3.84 (2.69) AB log CFU/g; with Salmonella Typhimurium [5] (0.5× = 6.5 mg per bird, Combined 24 and 48 h), 4.01 (2.59) A log CFU/g; with Salmonella Typhimurium [5] (1× = 13 mg per bird, 24 h), 2.58 (2.10) B log CFU/g; in the test with Salmonella Typhimurium [5] (1× = 13 mg per bird, 48 h), 2.88 (2.78) B log CFU/g; in the test with Salmonella Typhimurium [5] (1× = 13 mg per bird, Combined 24 and 48 h) it was 2.73±2.45 log CFU/g and 2.73 (2.45) B log CFU/g. In addition, the “inactivation of C. jejuni cultures” value in the test with C. jejuni (10 mM) and in the test with C. jejuni (20 mM) was “completely inactivated” in each case. Besides, the “growth of S. Typhimurium (specific growth rate)” value in the test on S. Typhimurium [1] (2.5 mM and higher concentrations in TSB, 37° C.) is given as “largely prohibited”.
